Measured values published in paper PMC12707362, “Targeting Aurora Kinases as Essential Cell‐Cycle Regulators to Deliver Multi‐Stage Antimalarials Against Plasmodium Falciparum” (Angewandte Chemie (International Ed. in English), 2025).
Read-outs that look alike come from different tables or passages of the source.

Tests used:
[1] = test system: late-stage (stage IV/V) gametocytes, P. falciparum 3D7elo1-pfs16-CBG99; experiment: Luciferase reporter assay, late-stage gametocytes; assay type: cell-based; settings: Plasmodium falciparum, 48 h, read-out: Pf Late stage gametocyte %inhibition @ 5 µM
Procedure: (§1) P. falciparum drug sensitive NF54 (PfNF54) and drug-resistant Dd2 (PfDd2, chloroquine, pyrimethamine and mefloquine resistant) strains were cultured in vitro in human O^+/A^+ erythrocytes (5% hematocrit) in complete medium at 2–5% parasitemia, 37 °C, shaking at 60 rpm under hypoxic conditions (90% N2, 5% O2 and 5% CO2). Immature and mature gametocytes were produced from P. falciparum 3D7elo1-pfs16-CBG99 (kind gift from Pietro Alano, ISS, Italy) ^[1] as described^[2,3] by simultaneously applying nutrient starvation and decreasing hematocrit to induce >97% ring-stage ABS parasites (0.5% parasitemia, 6% hematocrit). Gametocytogenesis was followed with daily media changes (including glucose) and ABS parasites removed with 50 mM N-acetylglucosamine (day 1–4 for stage II/III; days 3–7 for stage IV/V).
(§2) All inhibitors were dissolved in dimethyl sulfoxide (DMSO). Antiplasmodium activity of selected anti-cancer inhibitors was determined on P. falciparum NF54 and Dd2 strains, measuring SYBR Green I fluorescence (485 nm excitation, 538 nm emission) as an indicator of proliferation^[4]. Ring-stage ABS parasites (1% parasitemia, 1% hematocrit) were treated with compounds for 96 h at 37 °C with chloroquine disulphate (0.5 μM) as positive drug control. The activity of the inhibitors was tested against immature (>95% stage II/III) and late-stage (>90% stage IV/V) gametocytes using a luciferase reporter assay on 3D7elo1-pfs16-CBG99 ^[1]. […] Luciferase activity was determined using a non-lysing D-luciferin substrate (1 mM in 0.1 M citrate buffer, pH 5.5, 100 μL) and bioluminescence was detected with a GloMax® - Multi Detection System with Instinct® software.

[2] = test system: immature (stage II/III) gametocytes, P. falciparum 3D7elo1-pfs16-CBG99; experiment: Luciferase reporter assay, immature gametocytes; assay type: cell-based, Plasmodium falciparum; settings: 48 h; for inhibition at 5 µM: Plasmodium falciparum, read-out: Pf Early stage gametocyte %inhibition @ 5 µM
Procedure: as §1, §2

[3] = test system: multidrug-resistant PfDd2 ABS parasites; experiment: SYBR Green I proliferation assay, PfDd2 asexual blood stages; assay type: cell-based; settings: Plasmodium falciparum, DD2, read-out: Pf Dd2 ABS IC50
Procedure: (B) Antiplasmodial activity of nine anticancer aurora kinase inhibitors (selected based on their PfNF54 ABS activity) against P. falciparum multidrug-resistant ABS parasites (PfDd2 and PfK1). (C) Kinobead competitive inhibition data.
as §1, §2

recombinant PfPKG = biological target: T1, recombinant PfPKG (Plasmodium falciparum, UniProt Q8I719); experiment: ADP-Glo kinase assay, PfPKG; assay type: biochemical
T1 construct: Full-length PfPKG (PF3D7_1436600); His tag (N); made in house; host or cells: E. coli (first-named host, read as 'respectively')
From the text: (§3) Full-length PfPKG (PF3D7_1436600)^[19] and PvPI4Kβ (PVX_098050)^[20] recombinant proteins were expressed in E. coli and baculovirus-insect cell expression systems. The kinase domain of PfCLK3 (PF3D7_1114700, Gln317 to Ser694) was expressed in E. coli Rosetta™(DE3)pLysS cells (kind gift from Rafael M. Couñago, CQMED, University of Campinas). Briefly, the N-terminal His-tagged kinases were purified using immobilized metal affinity chromatography, followed by anion exchange chromatography in the case of PfPKG, and size exclusion chromatography. Dose-response kinase inhibition assays were carried out using the ADP-Glo kinase assay kit^[21], with 1 nM PfPKG, 10 μM ATP, 20 μM […]-NH2, 1% (v/v) DMSO and inhibitor in PKG assay buffer (25 mM HEPES pH 7.4, 0.1 mg/mL BSA, 0.01% (v/v) Triton-X 100, 20 mM MgCl2, 2 mM DTT, 10 μM cGMP); or 6 nM PvPI4Kβ, 10 μM ATP, 0.1 mg/ml L-alpha-phosphatidylinositol, 1% (v/v) DMSO and inhibitor in PI4Kβ assay buffer (25 mM HEPES pH 7.4, 100 mM NaCl, 3 mM MgCl2, 1 mM DTT, 0.025 mg/ml BSA, 0.2% (v/v) Triton-X-100); or 15 nM PfCLK3, 10 μM ATP, 20 μM myelin basic protein, 1% (v/v) DMSO and inhibitor in assay buffer (50 mM HEPES pH 7.4, 0.1 mg/mL BSA, 0.01% (v/v) Triton-X 100, 20 mM MgCl2, 2 mM DTT). […] Mean IC50 values were calculated from two independent experiments, each with technical duplicates.

[4] = Cytotoxicity counter-screening (MTT), CHO; settings: Chinese hamster
Procedure: HepG2 and CHO cells were maintained at 37 °C, under a humidified atmosphere of 5% CO2, in DMEM high glucose media (Gibco) supplemented with 10% heat-inactivated FBS and 1% (v/v) Penicillin-Streptomycin antibiotics. […] The supernatant was discarded, and the cell pellet was resuspended in 1 mL DMEM media for cell counting by Trypan Blue. To determine the toxicity, cells were resuspended and seeded at a concentration of 1x10^4 cells/well in a 96-well plate and incubated for 24 h^[9,10]. Cells were treated in duplicate with a 10-fold serial dilution starting at 100 ug/mL of inhibitor in new media. After 48 h incubation, the viable cells were measured using the MTT tetrazolium reduction assay, where sterile 25 µL of a 5 mg/mL MTT was added to each well and incubated for 4 h before the […] formazan crystals were dissolved with 100 µL DMSO (Merck) per well. The absorbance, a measure of intracellular reduction of MTT, was measured at 540 nm (Multiskan GO). Emetine (50 µM) was included as a positive drug control, and the background was subtracted from all data before being normalised to the untreated^[9,10].

[5] = biological target: T2, recombinant PfCLK3 kinase domain (Plasmodium falciparum, UniProt Q8IIL5); experiment: ADP-Glo kinase assay, PfCLK3; assay type: biochemical
T2 sequence (Q8IIL5 317-694): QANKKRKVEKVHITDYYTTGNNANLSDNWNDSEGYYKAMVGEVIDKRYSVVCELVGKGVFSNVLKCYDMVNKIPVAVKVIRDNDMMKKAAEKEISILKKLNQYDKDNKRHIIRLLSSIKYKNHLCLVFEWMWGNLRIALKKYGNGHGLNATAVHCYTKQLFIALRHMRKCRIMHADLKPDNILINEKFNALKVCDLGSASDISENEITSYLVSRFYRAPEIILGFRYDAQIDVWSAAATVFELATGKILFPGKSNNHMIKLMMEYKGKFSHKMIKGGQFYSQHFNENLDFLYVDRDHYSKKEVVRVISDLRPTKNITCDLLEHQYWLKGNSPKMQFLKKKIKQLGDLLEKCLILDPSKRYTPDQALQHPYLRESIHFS
From the text: as §3

recombinant PvPI4Kβ = recombinant PvPI4Kβ (Plasmodium vivax, UniProt A5KB26); experiment: ADP-Glo kinase assay, PvPI4Kβ; assay type: biochemical
From the text: as §3

[6] = 10 µM ATP, read-out: IC50 PfCLK3
[7] = 10 µM ATP, read-out: IC50 PvPI4Kβ

T1 sequence (Q8I719 whole entry): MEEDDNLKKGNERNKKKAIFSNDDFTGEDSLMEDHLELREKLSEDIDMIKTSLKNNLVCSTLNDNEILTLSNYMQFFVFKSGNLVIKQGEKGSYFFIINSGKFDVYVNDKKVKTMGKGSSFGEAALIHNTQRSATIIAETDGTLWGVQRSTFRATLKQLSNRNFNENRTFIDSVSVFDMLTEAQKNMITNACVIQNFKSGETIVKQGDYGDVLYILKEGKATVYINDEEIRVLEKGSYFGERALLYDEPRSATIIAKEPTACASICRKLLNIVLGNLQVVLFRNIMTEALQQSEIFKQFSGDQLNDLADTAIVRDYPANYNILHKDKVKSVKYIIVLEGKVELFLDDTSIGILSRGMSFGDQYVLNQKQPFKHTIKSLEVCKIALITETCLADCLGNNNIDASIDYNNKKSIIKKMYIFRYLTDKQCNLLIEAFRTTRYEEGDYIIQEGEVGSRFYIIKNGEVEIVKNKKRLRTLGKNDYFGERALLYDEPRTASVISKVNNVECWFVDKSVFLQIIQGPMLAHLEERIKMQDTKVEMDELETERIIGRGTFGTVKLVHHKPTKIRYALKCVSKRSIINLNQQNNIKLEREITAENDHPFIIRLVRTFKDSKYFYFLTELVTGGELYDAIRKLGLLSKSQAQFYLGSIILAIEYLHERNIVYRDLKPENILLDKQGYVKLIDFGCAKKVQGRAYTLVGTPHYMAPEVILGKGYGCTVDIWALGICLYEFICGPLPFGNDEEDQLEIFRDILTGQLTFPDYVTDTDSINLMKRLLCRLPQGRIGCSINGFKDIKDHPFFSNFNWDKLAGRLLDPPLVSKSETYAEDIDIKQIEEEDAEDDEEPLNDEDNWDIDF
recombinant PvPI4Kβ, sequence (A5KB26 1-1525): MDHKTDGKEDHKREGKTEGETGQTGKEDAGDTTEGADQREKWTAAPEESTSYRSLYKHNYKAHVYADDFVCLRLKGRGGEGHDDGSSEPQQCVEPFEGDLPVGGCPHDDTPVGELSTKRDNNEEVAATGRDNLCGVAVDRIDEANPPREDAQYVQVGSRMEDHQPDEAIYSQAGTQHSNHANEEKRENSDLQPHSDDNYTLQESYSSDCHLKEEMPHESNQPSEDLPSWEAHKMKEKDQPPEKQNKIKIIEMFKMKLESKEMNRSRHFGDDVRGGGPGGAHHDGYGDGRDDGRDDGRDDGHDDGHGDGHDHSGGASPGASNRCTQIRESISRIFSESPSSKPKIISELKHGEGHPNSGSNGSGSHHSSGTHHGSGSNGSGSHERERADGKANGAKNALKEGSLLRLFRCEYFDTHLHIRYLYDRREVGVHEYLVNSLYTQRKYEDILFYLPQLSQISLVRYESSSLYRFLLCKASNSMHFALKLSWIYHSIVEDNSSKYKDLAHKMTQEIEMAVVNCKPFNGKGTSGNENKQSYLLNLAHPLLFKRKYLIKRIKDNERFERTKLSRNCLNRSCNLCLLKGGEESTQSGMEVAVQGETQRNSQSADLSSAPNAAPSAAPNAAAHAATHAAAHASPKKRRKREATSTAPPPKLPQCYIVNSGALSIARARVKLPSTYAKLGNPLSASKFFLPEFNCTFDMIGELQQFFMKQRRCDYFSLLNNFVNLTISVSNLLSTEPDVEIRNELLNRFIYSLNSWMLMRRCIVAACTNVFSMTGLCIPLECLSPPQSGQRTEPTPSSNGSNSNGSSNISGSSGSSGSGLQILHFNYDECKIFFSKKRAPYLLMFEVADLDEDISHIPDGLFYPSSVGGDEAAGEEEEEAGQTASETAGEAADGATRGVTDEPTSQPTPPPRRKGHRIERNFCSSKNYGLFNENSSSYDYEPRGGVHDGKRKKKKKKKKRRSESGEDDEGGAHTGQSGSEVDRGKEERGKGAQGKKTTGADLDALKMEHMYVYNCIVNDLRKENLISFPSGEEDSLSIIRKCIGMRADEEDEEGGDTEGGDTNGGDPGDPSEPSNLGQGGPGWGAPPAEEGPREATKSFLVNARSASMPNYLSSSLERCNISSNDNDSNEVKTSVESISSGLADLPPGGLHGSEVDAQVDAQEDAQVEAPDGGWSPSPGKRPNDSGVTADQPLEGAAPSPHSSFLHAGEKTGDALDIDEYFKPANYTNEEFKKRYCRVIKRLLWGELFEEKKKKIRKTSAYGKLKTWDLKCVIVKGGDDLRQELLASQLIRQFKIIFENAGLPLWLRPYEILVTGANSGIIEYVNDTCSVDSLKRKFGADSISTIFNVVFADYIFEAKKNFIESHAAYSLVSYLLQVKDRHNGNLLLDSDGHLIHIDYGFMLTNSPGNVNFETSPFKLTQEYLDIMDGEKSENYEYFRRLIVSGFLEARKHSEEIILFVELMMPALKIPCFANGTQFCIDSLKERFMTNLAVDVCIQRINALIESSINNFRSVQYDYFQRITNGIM

SMILES	inhibition at 5 µM [1] [%]	Pf Early stage gametocyte %inhibition @ 5 µM [2]	inhibition at 5 µM [2] [%]	IC50 [3] [nM]	IC50 (recombinant PfPKG) [nM]	CC50 at 48 h [4] [nM]	IC50 [5, 6] [nM]	IC50 (recombinant PvPI4Kβ; [7]) [nM]	IC50 (recombinant PfPKG; 10 µM ATP, read-out: IC50 PfPKG) [nM]	CC50 at 48 h ([4]; CHO cells) [nM]	IC50 [5] [nM]	IC50 (recombinant PvPI4Kβ) [nM]
CCN1CCN(C(=O)Cc2ccc(Nc3ncc(F)c(Nc4ccc(C(=O)Nc5ccccc5Cl)cc4)n3)cc2)CC1 [AAi I, Aurora A Inhibitor I]	48.7	73,0 ± 3,1%	~70	903	1700	3600	2400	> 10000				
O=C(Nc1c[nH]nc1-c1nc2ccc(CN3CCOCC3)cc2[nH]1)NC1CC1 [AT83, AT9283]	48.9		53.5	105	9300	4500 ± 2100	100	> 10000				
CCN(CCO)CCCOc1ccc2c(Nc3cc(CC(=O)Nc4cccc(F)c4)n[nH]3)ncnc2c1 [AZD-1152, AZD-1152-HQPA]	38.2		31.1	490	> 10000	> 15000	> 10000	> 10000				
O=C(Nc1cccc(Nc2nccc(Nc3cccc(C(F)(F)F)c3)n2)c1)C1CC1 [Aki III, Aurora kinase inhibitor III]	3.5		27.7	1600					2700	2400	> 10000	> 10000
COc1cc(N2CCC(N3CCN(C)CC3)CC2)ccc1Nc1ncc(Cl)c(Nc2ccccc2S(=O)(=O)C(C)C)n1 [TAE684, NVP-TAE684]	50.8	65,4 ± 1,7%	~70	227	2000	2000	> 10000	> 10000				
COc1cc2c(Nc3ccc(NC(=O)c4ccccc4)cc3)ncnc2cc1OCCCN1CCOCC1 [ZM-39, ZM-447439]	21.5		32.7	374	> 10000		> 10000	> 10000		> 15000		
